# Results reported in publication PMC7808732 (Biochemical and Biophysical Research Communications, 2021).
# Target: RNA-binding domain (RBD) of the SARS-CoV-2 nucleocapsid (N) protein, RBD (44–180) (Severe acute respiratory syndrome coronavirus 2, UniProt P0DTC9)
# Experiment: biochemical
compound,measurement,value
Nc1ncnc2c1ncn2[C@@H]1O[C@H](COP(=O)(O)OP(=O)(O)OP(=O)(O)O)[C@@H](O)[C@H]1O [ATP],Kd,3.3 ± 0.4 mM
